Assay results: BigSolDB 2.1

CCc1occc(=O)c1O
solubility (mole fraction)
Conditions | 293.15 K | 298.15 K | 303.15 K | 308.15 K | 313.15 K | 318.15 K | 323.15 K | 328.15 K | 333.15 K
in ethanol | 0.0599 | 0.0798 | 0.0974 | 0.133 | 0.174 | 0.227 | 0.291 | 0.367 | 0.459
in water | 0.0021 | 0.0023 | 0.0027 | 0.0033 | 0.004 | 0.0051 | 0.0067 | 0.0089 | 0.0126
